Here are results for eleven molecules from PubChem BioAssay (NCI).

Some test systems named below: ACHN renal; EKVX NSCLC; HCT-116 colon; HCT-15 colon; IGROV1 ovarian; MCF7 breast; PC-3 prostate; SF-268 CNS; SF-295 CNS; SK-MEL-5 melanoma.
Holding throughout (test): growth of human tumour cells (NCI), 48 h

SMILES strings stand for the structures.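 Dose response: 5 concentrations. Exposure: 48 h. Format: 96-well plates. Endpoint: linear interpolation; highest concentration if not reached. At the GI50, growth is halved. Definition used: TGI = concentration required for complete inhibition of growth.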

As for `C#CCSC(C=C=C)P(=O)(OC(C)C)OC(C)C` (stereo not given), the TGI in the experiment on ACHN renal is more than 100 µM; in the experiment on EKVX NSCLC, more than 100 µM; with HCT-116 colon it was 62.8 µM; in the experiment with HCT-15 colon it was more than 100 µM; in the experiment on IGROV1 ovarian, more than 100 µM; in the experiment with MCF7 breast, more than 100 µM. The TGI with PC-3 prostate, with SF-268 CNS, in the experiment on SF-295 CNS and in the experiment with SK-MEL-5 melanoma was more than 100 µM in each case.

On to `OC(CCNCc1ccccc1)c1ccc2ccccc2c1` (stereo not given), for which the TGI was 41.5 µM with ACHN renal; more than 100 µM in the experiment on EKVX NSCLC; 47.1 µM in the experiment with HCT-116 colon; 38.8 µM in the experiment on HCT-15 colon; 30.6 µM in the experiment on IGROV1 ovarian; 54.3 µM in the experiment with MCF7 breast. The TGI with PC-3 prostate came to 47.4 µM; with SF-268 CNS, 48 µM; in the experiment with SF-295 CNS it was 63.9 µM; in the experiment with SK-MEL-5 melanoma, 32.4 µM.

Turning to `CC1(C)CC(=O)c2c(nc3ccc4ccccc4c3c2-c2ccc(NC(=O)CCCCCCCCC(=O)Nc3ccc(-c4c5c(nc6ccc7ccccc7c46)CC(C)(C)CC5=O)cc3)cc2)C1`, the TGI in the experiment with ACHN renal, in the experiment with EKVX NSCLC, in the experiment on HCT-116 colon, in the experiment with HCT-15 colon, in the experiment on IGROV1 ovarian and with MCF7 breast was more than 100 µM in each case. Besides, the TGI in the experiment on PC-3 prostate, in the experiment on SF-268 CNS, with SF-295 CNS and in the experiment with SK-MEL-5 melanoma was more than 100 µM each time.

`CN1CCN(CCCBr)CC1`: the TGI in the experiment with ACHN renal, in the experiment with EKVX NSCLC, with HCT-116 colon, with HCT-15 colon, with IGROV1 ovarian and in the experiment on MCF7 breast was more than 100 µM each time. Further, the TGI in the experiment on PC-3 prostate, in the experiment with SF-268 CNS, in the experiment on SF-295 CNS and in the experiment with SK-MEL-5 melanoma was more than 100 µM in each case.

Take `COc1ccc(C(SC2C(O)C(CO)OC2n2ccc(N)nc2=O)(c2ccccc2)c2ccc(OC)cc2)cc1` (stereo not given): the TGI was more than 100 µM in the experiment with ACHN renal; 50.4 µM in the experiment on EKVX NSCLC; 29.4 µM in the experiment on HCT-116 colon; 46.2 µM in the experiment with HCT-15 colon; 67 µM in the experiment on IGROV1 ovarian; 50.6 µM with MCF7 breast. The TGI in the experiment on PC-3 prostate worked out at 41.1 µM; in the experiment with SF-268 CNS, 39.5 µM; in the experiment on SF-295 CNS it was 49.8 µM; with SK-MEL-5 melanoma it was 25.6 µM.

On to `COC(=O)[C@H]1CO[C@H]2C/C(C)=C/CC/C(C)=C/CC[C@@]3(C)O[C@@H]3C[C@H]21`, for which the TGI is more than 50 µM in the experiment with ACHN renal; more than 50 µM in the experiment on EKVX NSCLC; 24.9 µM in the experiment on HCT-116 colon; 19.9 µM with HCT-15 colon; more than 50 µM with IGROV1 ovarian; more than 50 µM in the experiment with MCF7 breast. Also, the TGI in the experiment on PC-3 prostate is more than 50 µM; with SF-268 CNS, more than 50 µM; with SF-295 CNS, more than 50 µM; in the experiment on SK-MEL-5 melanoma, 15.5 µM.

Consider `O=c1oc2ccccc2cc1-c1cn2cc(Cl)ccc2n1`, for which the TGI in the experiment with ACHN renal was 3.31 µM; in the experiment with EKVX NSCLC, more than 100 µM; in the experiment on HCT-116 colon, 14.7 µM; in the experiment on HCT-15 colon, 20.7 µM; with IGROV1 ovarian, 17.7 µM; with MCF7 breast it was 2.12 µM. Moreover, the TGI is 16.4 µM with PC-3 prostate, 16.7 µM with SF-268 CNS, 5.36 µM in the experiment on SF-295 CNS and 19.1 µM with SK-MEL-5 melanoma.

Regarding `COC(=O)c1c(OC(C)=O)ccc2c1c1c(n2C)C(=O)c2ccccc2C1=O`, the TGI in the experiment with ACHN renal was 51.5 µM; in the experiment with EKVX NSCLC, 92.7 µM; with HCT-116 colon it was more than 100 µM; in the experiment with HCT-15 colon, more than 100 µM; with IGROV1 ovarian, 22.3 µM; in the experiment on MCF7 breast, more than 100 µM. The TGI with PC-3 prostate was 88.1 µM; in the experiment on SF-268 CNS it was more than 100 µM; with SF-295 CNS, 67.8 µM; with SK-MEL-5 melanoma it was 47 µM.

As to `Cc1cc(N2CCCC2)nc(N(CCNc2ccnc3cc(Cl)ccc23)Cc2ccco2)n1`, the GI50 in the experiment with ACHN renal was 6.53 µM; in the experiment on EKVX NSCLC, 5.7 µM; with HCT-116 colon, 1.91 µM; with HCT-15 colon, 3.19 µM; with IGROV1 ovarian, 2.5 µM; in the experiment with MCF7 breast it was 2.91 µM. The GI50 in the experiment with PC-3 prostate was 2.84 µM; with SF-268 CNS, 11.7 µM; in the experiment on SF-295 CNS it was 2.07 µM; in the experiment with SK-MEL-5 melanoma, 1.78 µM. Besides, the TGI in the experiment with ACHN renal, with EKVX NSCLC, with HCT-116 colon, in the experiment on HCT-15 colon, in the experiment on IGROV1 ovarian and with MCF7 breast was more than 100 µM each time. Further, the TGI in the experiment with PC-3 prostate was more than 100 µM; in the experiment with SF-268 CNS it was more than 100 µM; with SF-295 CNS it was 16.1 µM; with SK-MEL-5 melanoma, 3.28 µM.

Take `C(CCCCc1nnc(N2CCCCC2)o1)CCCc1nnc(N2CCCCC2)o1`: the TGI with ACHN renal, with EKVX NSCLC, with HCT-116 colon, in the experiment on HCT-15 colon, in the experiment with IGROV1 ovarian and with MCF7 breast was more than 100 µM each time. Also, the TGI in the experiment with PC-3 prostate, with SF-268 CNS, with SF-295 CNS and in the experiment on SK-MEL-5 melanoma was more than 100 µM throughout.

As to `C[C@@H]1CC[C@H]2C(C(O)CCCCC(O)C3=C(C(F)(F)F)O[C@@H]4O[C@@]5(C)CC[C@H]6[C@H](C)CC[C@@H]3[C@@]46OO5)=C(C(F)(F)F)O[C@@H]3O[C@@]4(C)CC[C@@H]1[C@]32OO4` (stereo not given in full), the GI50 with ACHN renal was 13.9 µM; in the experiment on EKVX NSCLC, 31.9 µM; in the experiment on HCT-116 colon, 7.17 µM; in the experiment with HCT-15 colon it was 9.79 µM; with IGROV1 ovarian it was 15.6 µM; in the experiment with MCF7 breast, 5.01 µM. In addition, the GI50 with PC-3 prostate is 3.96 µM; with SF-268 CNS, 19.5 µM; in the experiment on SF-295 CNS, 53.7 µM; with SK-MEL-5 melanoma, 24.7 µM. Further, the TGI with ACHN renal, in the experiment on EKVX NSCLC, in the experiment with HCT-116 colon, in the experiment with HCT-15 colon, in the experiment with IGROV1 ovarian and with MCF7 breast was more than 100 µM throughout. For the same molecule, the TGI in the experiment with PC-3 prostate, with SF-268 CNS, in the experiment on SF-295 CNS and with SK-MEL-5 melanoma was more than 100 µM in each case.
